Results taken from patent publication US20080214606A1, “Methods for the Identification and Use of Compounds Suitable for the Treatment of Drug Resistant Cancer Cells” (The Government of the United States of America as …, priority 2004, published 2008).

What follows are molecules tested against ABCB1 (Homo sapiens, UniProt P08183) (assay: Correlation of ABCB1 expression with drug sensitivity across the NCI-60).
Experimental: Expression levels are measured by real-time quantitative RT-PCR using the LightCycler RNA Amplification SYBR Green kit and a LightCycler machine (Roche Biochemicals, Indianapolis, Ind.). Specific oligonucleotide probes are designed for each of the ABC transporters using DNAStar Primer Select (DNASTAR Inc.), and they may be synthesized at Lofstrand Laboratories (Gaithersburg, Md.). When possible, the amplicons are designed to encompass exon-intron boundaries to avoid amplification of genomic DNA. Since the Syber Green assay detects accumulation of double stranded DNA, primers are selected (from a battery consisting of about 200 primers) that amplified a single product of the correct size.
RT-PCR is carried out on 150 ng total RNA, in the presence of 250 nM specific primers. Following reverse transcription (20 min at 50° C.), the PCR reaction consists of 45 cycles of denaturation (15 sec at 95° C.), annealing (30 sec at 58° C.), and elongation (30 sec at 72° C.). No-template (water) reaction mixtures are prepared as negative controls.
During PCR amplification, fluorescence emission is measured and recorded in real time by the LightCycler. Crossing point values are calculated, using the LightCycler software package, by the Fit Points analysis method, with baseline fluorescence set at 1. The SyberGreen assay measures accumulation of double-stranded products, and the appearance of primer dimers limits quantitation at high cycle numbers. […] The raw results are expressed as number of cycles to reach the crossing point. If the desired product is not detected, the corresponding value is adjusted to crossing points indicating no expression. To assess the contribution of experimental artifacts, selected cell lines are assessed in replicate.
Both sets are available at http://discover.nci.nih.gov. The two are combined to form a joint dataset that includes 1429 compounds.
To determine quantitatively how well the 47 genes cluster the cell lines by their tissues of origin, a statistical method is employed wherein the kappa statistic is used to indicate how well the observed clusters correspond to the nine tissue-of-origin classifications. […] To control the overall false type 1 error rate, both a step-down procedure (Westfall and Young, 1993, Resampling-Based Multiple Testing: Examples and Methods for p-value Adjustment (New York: Wiley)) and a step-up procedure (Reiner et al., 2003, Bioinformatics 19:368-375) were employed to adjust for multiple testing of all 47 genes simultaneously. In the Benjamini-Hochberg procedure the p-values are computed in the standard way by permutation, assuming that all distributions are exchangeable: the number of values in the permuted data with correlations over a threshold, divided by the number of compounds and by the number of permutations. In this analysis, the False Discovery Rate (q-value) at which each compound would be declared was calculated using the step-up procedure for positively correlated test statistics (again true because all correlations being compared are computed against the same ABC gene): in this procedure the first q-value for the largest correlation is the Bonferroni-corrected p-value for that gene; then further q-values are calculated as qj=max(pj*1429/j, qj-1). This procedure limits the expected proportion of false positives in the list 1, . . . , j to at most qj.

Chain of ABCB1 (P08183 whole entry): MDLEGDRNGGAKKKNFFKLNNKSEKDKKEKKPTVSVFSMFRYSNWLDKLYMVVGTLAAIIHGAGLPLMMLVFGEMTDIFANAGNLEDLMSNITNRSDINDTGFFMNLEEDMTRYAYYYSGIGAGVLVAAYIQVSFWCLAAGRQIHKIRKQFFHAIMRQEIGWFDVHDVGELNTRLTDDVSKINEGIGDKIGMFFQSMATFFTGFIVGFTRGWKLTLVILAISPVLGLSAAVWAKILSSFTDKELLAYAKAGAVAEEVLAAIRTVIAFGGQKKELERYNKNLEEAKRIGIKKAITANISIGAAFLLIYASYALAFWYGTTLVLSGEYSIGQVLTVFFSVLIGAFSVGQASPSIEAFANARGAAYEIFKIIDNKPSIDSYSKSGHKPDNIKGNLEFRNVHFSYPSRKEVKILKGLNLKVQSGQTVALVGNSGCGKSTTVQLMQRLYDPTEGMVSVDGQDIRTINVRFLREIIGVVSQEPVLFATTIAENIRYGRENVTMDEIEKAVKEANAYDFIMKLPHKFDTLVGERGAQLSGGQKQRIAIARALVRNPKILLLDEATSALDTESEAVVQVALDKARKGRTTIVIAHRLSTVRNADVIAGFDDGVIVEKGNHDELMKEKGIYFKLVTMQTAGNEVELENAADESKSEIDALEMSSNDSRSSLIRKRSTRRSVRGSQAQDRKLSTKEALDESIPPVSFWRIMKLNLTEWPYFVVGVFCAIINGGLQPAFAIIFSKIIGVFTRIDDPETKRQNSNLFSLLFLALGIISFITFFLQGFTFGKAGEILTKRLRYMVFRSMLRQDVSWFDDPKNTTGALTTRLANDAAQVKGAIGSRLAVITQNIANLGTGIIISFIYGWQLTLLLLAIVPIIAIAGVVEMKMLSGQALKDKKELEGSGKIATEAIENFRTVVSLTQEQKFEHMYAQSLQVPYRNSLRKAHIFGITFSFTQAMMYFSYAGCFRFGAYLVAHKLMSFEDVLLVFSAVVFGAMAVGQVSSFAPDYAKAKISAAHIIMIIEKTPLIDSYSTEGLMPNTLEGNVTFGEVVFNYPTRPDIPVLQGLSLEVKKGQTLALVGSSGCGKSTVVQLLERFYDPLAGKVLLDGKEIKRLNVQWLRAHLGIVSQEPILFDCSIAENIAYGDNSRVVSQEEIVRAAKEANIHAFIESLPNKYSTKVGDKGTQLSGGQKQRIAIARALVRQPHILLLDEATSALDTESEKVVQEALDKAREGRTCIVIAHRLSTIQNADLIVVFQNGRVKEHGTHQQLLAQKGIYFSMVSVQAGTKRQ

| SMILES | Relationship between drug sensitivity and ABCB1 expression (in words) | Correlation | Pearson's Correlation Coeff | Correlation of antiproliferative activity with ABCB1 expression |
| --- | --- | --- | --- | --- |
| CC(=O)O[C@H]1C(=O)[C@@]2(C)[C@H]([C@H](OC(=O)c3ccccc3)[C@]3(O)C[C@H](OC(=O)[C@H](O)[C@@H](NC(=O)c4ccccc4)c4ccccc4)C(C)=C1C3(C)C)[C@]1(OC(C)=O)CO[C@@H]1C[C@@H]2O [paclitaxel, reference compound] | striking inverse correlations |  |  |  |
| COc1cc2c(c(O)c1O)-c1ccc(OC)c(=O)cc1C(NC(C)=O)CC2 (stereo not shown) [NSC 354975] |  | −0.6043 |  |  |
| Cc1ccc2c(c1)-c1c(C#N)c(N)nc(-c3ccc(Cl)cc3)c1CCS2(=O)=O [NSC691578] |  |  | 0.2102 |  |
| COc1ccc(C2COc3cc(O)c(O)cc3C2)cc1 (stereo not shown) [NSC600285] |  |  | 0.2935 |  |
| COc1cccc2c1C(=O)c1c(O)c3c(c(O)c1C2=O)C[C@@](O)(C(C)=O)C[C@@H]3OC1CC(N(Cc2ccccc2)Cc2ccccc2)C(O)C(C)O1.Cl (stereo partly shown) [NSC268242] |  |  | 0.2268 |  |
| CN(C)CCN1C(=O)c2cccc3cc([N+](=O)[O-])cc(c23)C1=O [NSC300288] |  |  | 0.2734 |  |
| CC(C)=CCC[C@@H](C)C1=C(O)C(Nc2ccccc2Cl)=C(C)C(=O)C1=O [NSC 697132] |  |  |  | 0.3558 |
| COc1ccc2oc(S(=O)(=O)N3CC(CCl)c4ccc([N+](=O)[O-])cc43)cc2c1 (stereo not shown) [NSC696992] |  |  | 0.2171 |  |
| O=C(/C=C/c1ccc(Cl)cc1)c1ccccc(=O)c1O [NSC 356777] |  |  |  | 0.4021 |
| NC(=O)NO [hydroxyurea, reference compound] | non-correlated or positively correlated |  |  |  |
| CN(Cc1cnc2nc(N)nc(N)c2n1)c1ccc(C(=O)N[C@@H](CCC(=O)O)C(=O)O)cc1 [methotrexate, reference compound] | non-correlated or positively correlated |  |  |  |
| CC(C)=CCCC(C)c1c(O)c(O)c(C)c2nc3ccccc3nc12 (stereo not shown) [NSC697120] |  |  | 0.4167 | 0.4435 |
| CC[C@]12C=CCN3CCC4(c5cc([C@@]6(C(=O)OC)CC7CN(CCc8c6[nH]c6ccccc86)C[C@@H]6CCC[C@H]76)c(OC)cc5N(C)C4[C@](O)(C(=O)OC)C1OC(C)=O)C32.COS(=O)(=O)O (stereo partly shown) [NSC 651727] |  | −0.3910 |  |  |
| Cc1cc(N(CCOS(C)(=O)=O)CCOS(C)(=O)=O)ccc1C=Nc1ccc(-c2nc(Cc3ccccc3)sc2C)cc1 [NSC281817] |  |  | 0.2646 |  |
| Nc1ncnc2c1nc(Cl)n2[C@@H]1O[C@@H]2COP(=O)(O)O[C@H]2[C@H]1O [NSC284751] |  |  | 0.2759 |  |
| Br.CCN(CC)CC[n+]1ccc2c(C)c3[nH]c4ccccc4c3c(C)c2c1.[Br-] [NSC 353076] |  | −0.7983 |  |  |
| [N-]=[N+]=CC(=O)OC1Cc2ccccc2C1 [NSC 679285] |  |  |  | 0.3504 |
| O=[Se](=O)c1ccccc1.O=[Se](=O)c1ccccc1.[Cu] [NSC 626670] |  |  |  | 0.4177 |
| CSc1sc(=S)sc1SC [NSC 627450] |  |  |  | 0.4454 |
| COc1cc(/C=C2\CCC/C(=C\c3ccc(O)c(OC)c3)C2=O)ccc1O [NSC652893] |  |  | 0.2821 |  |
| CS(C)=O.[Cl][Pt][Cl].c1ccc2ncccc2c1 [NSC632790] |  |  | 0.2677 |  |
| CCNc1nnc(-c2ccccc2Nc2ccccc2-c2nnc(NCC)s2)s1 [NSC698459] |  |  | 0.3095 |  |
| COc1c(OC(C)=O)c(OC(C)=O)cc2c1-c1ccc(SC)c(=O)cc1C(NC(C)=O)CC2 (stereo not shown) [NSC 374980] |  | −0.5590 |  |  |
| Cl.Oc1c(CN2CCCC2)ccc2cccnc12 [NSC693871] |  |  | 0.6160 | 0.6811 |
| Cc1ccc2nc3c(C(=O)NCCN(C)C)cccc3cc2c1.Cl [NSC 617963] |  |  |  | 0.5317 |
| CCc1ccccc1N1CCN(C(=O)c2cc(OC)c(OC)c(OC)c2)CC1 [NSC56030] |  |  | 0.2372 |  |
| C=C1C(=O)O[C@@H]2C[C@H]1CC[C@]1(C)O[C@H]1CC/C(C)=C/CC[C@]2(C)O [NSC285706] |  |  | 0.3654 |  |

| SMILES | Relationship between drug sensitivity and ABCB1 expression (in words) | Correlation | Pearson's Correlation Coeff | Correlation of antiproliferative activity with ABCB1 expression |
| --- | --- | --- | --- | --- |
| CC(C)=CCC[C@@H](C)C1=C(O)C(=O)C(C)=C(NC(C)c2ccccc2)C1=O (stereo partly shown) [NSC697137] |  |  | 0.3828 | 0.4295 |
| CN(C)c1ccc(/C=C2\C[N+](C)(C)C/C(=C\c3ccc(N(C)C)cc3)C2=O)cc1.[I-] [NSC 618757] |  | −0.6081 |  |  |
| Cc1c2ccncc2c(C)c2c1[nH]c1ccc(Cl)cc12 [NSC176326] |  |  | 0.3552 |  |
| COc1ccc2nc3c(C(=O)NCCN(C)C)cccc3cc2c1.Cl [NSC 617959] |  |  |  | 0.3586 |
| CC(C)=CCC[C@@H](C)C1=C(N)C(=O)C(C)=C(O)C1=O [NSC 697124] |  |  |  | 0.4636 |
| CC(C)=CCC[C@@H](C)C1=C(O)C(=O)C(C)=C(N)C1=O [NSC697125] |  |  | 0.5604 | 0.5358 |
| NC(=S)NN=Cc1ncccc1O [NSC95678] |  |  | 0.2475 |  |
| CC(=O)O[C@H]1C#C/C=C\C#CC[C@@H]2C(=O)N(C(=O)OC(C)(C)C)[C@@H]12 [NSC697686] |  |  | 0.2297 |  |
| CCCCc1[nH]ccc2c(C)c3nc4ccccc4c3cc12 [NSC142055] |  |  | 0.3935 |  |
| Nc1nc(N)c2nc(CNc3ccc(C(=O)N[C@@H](CCCNC(=O)c4ccccc4C(=O)O)C(=O)O)cc3)cnc2n1 [NSC633713] |  |  | 0.2908 |  |
| CN(C)CCNC(=O)c1cc(Cl)cc2cc3ccccc3nc12.Cl [NSC 617966] |  |  |  | 0.3715 |
| CCc1nc(N)nc(N)c1-c1ccc(Cl)c(N=NN(C)C)c1 [NSC330465] |  |  | 0.2872 |  |
| COC1=C2C[C@@H](C)C[C@H](OC)[C@H](O)[C@@H](C)/C=C(\C)[C@H](OC(N)=O)[C@@H](OC)/C=C\C=C(/C)C(=O)NC(=CC1=O)C2=O [geldamycin, reference compound] | striking inverse correlations |  |  |  |
| CN(Cc1cnc2nc(N)nc(N)c2n1)c1ccc(C(=O)N[C@@H](CCC(=O)O)C(=O)O)c2ccccc12 [NSC174121] |  |  | 0.2662 |  |
| Cc1cc(C(=O)NCCN(C)C)c2nc3ccccc3cc2c1.Cl [NSC 617961] |  |  |  | 0.423 |
| CC(C)=CCC[C@@H](C)C1=C(Nc2ccccc2Cl)C(O)=C(C)C(=O)C1=O [NSC697138] |  |  | 0.3551 |  |
| COc1cccc2c1C(=O)c1c(O)c3c(c(O)c1C2=O)C[C@@](O)(C(=O)CO)C[C@@H]3O[C@H]1C[C@H](N)[C@H](O)[C@H](C)O1 [doxorubicin, reference compound] | striking inverse correlations |  |  |  |
| CC1(C)C2CC1C(C(O)C1c3cc(-c4ccccn4)ncc3C3CC1C3(C)C)c1cc(-c3ccccn3)ncc12 (stereo not shown) [NSC697653] |  |  | 0.1718 |  |
| CC(/C=N/NC(=S)N1CCCCC1)=N/NC(=S)N1CCCCC1 [NSC 693326] |  |  |  | 0.3892 |
| C=C(C)C(=O)O[C@H]1CC2=C[C@@H](C[C@@]3(C)O[C@@H]3[C@H]3OC(=O)C(=C)[C@@H]31)OC2=O [NSC100046] |  |  | 0.2949 |  |
| Oc1c(CN2CCN(c3ccccc3)CC2)cc(Br)c2cccnc12 [NSC 117028] |  |  |  | 0.3579 |
| COC(=O)CN(CC(O)C(NC(C)=O)C(O)C=O)C(=O)OCc1ccccc1 (stereo not shown) [NSC 693931] |  |  |  | 0.3708 |
| O=C([O-])c1ccc(C(=O)[O-])c(C(=O)[O-])c1.[H+].[NH-]C1CCCCC1[NH-].[Pt+4] [NSC271674] |  |  | 0.2678 |  |
| COc1ccc(C(=O)c2cc(OC)c(OC)c(OC)c2)cc1 [NSC638498] |  |  | 0.2464 |  |
| C=C1C(=O)O[C@H]2[C@H]1[C@@H](OC(=O)C=C(C)C)CC1=C[C@@H](C[C@@]3(C)O[C@@H]23)OC1=O [NSC102817] |  |  | 0.2813 |  |
| CCCOc1ccc(-c2nc(-c3ccc(N=Cc4ccc(N(CCOS(C)(=O)=O)CCOS(C)(=O)=O)cc4C)cc3)cs2)cc1 [NSC281818] |  |  | 0.2476 |  |
| CCc1nc(N)nc(N)c1-c1ccc(NC)c([N+](=O)[O-])c1 [NSC382034] |  |  | 0.3302 |  |
